Measurements reported in US5346913A, “N-iodopropargyl hydantoin compounds, compositions, preparation, and use as antimicrobial agents” (Rohm and Haas Company, priority 1992, dated 1994).
Values after ≈ are worked out from the molar mass of the structure shown. Where two headings read alike, the source gives them in different places.

Assays:
Piricularia oryzae [1] = test: whole plant or invertebrate; assay type: in vivo; settings: Pyricularia oryzae, read-out: % Control RB
TLB, CDM, WLR, SNW, WPM = settings: in vivo
[2] = tested on: Pseudoperonospora cubensis; test: whole plant or invertebrate; assay type: in vivo; settings: for percent disease control CDM: in vivo
Staphylococcus aureus = test: MIC, broth two-fold serial dilution test, Staphylococcus aureus (Saur); assay type: cell-based
From the text: (§1) The compounds identified with a prime (') were the non-iodo analogues of the invention compounds, i.e., the compounds of formula III or IV. All data are reported in ppm of active ingredient required to control the respective organism. The indication "No In." means that the compound had no inhibitory activity at 500 ppm which was the maximum tested, and so if the "No In." compound were active, the minimum inhibitory concentration would be above 500 ppm. The comparative tests were not run side-by-side, but were run on different days using the same methods. […] A minimum inhibitory concentration (MIC) value is obtained using a broth, two-fold serial dilution test performed as follows: […] A volume of the stock solution is dispensed into culture media to give an initial starting test concentration of the compound of 500 ppm or 250 ppm. When the test is ready to be done, each vessel in the dilution series, except the first vessel, contains an equal volume of compound free broth. The first vessel contains twice the volume of broth with the starting concentration of test compound. One half of the broth from the first vessel is transferred to the second vessel. After being mixed, one half the resulting volume is removed from the second vessel and transferred to the third vessel. […] Each vessel is then inoculated with a cell suspension of the appropriate test organism. Bacteria are grown in broth and fungi on agar […] is grown in cooling tower media for a time and at a temperature appropriate to the species being tested. At the end of the growth period, the broth is vortexed to disperse the cells. In the case of fungi, the spores are harvested by pipetting water onto the slant and dislodging the spores with a sterile loop. The cell/spore suspension is standardized by controlling incubation time, temperature, and the volume of the diluent. The suspension is then used to inoculate the vessels containing the broth compound. The vessels are then incubated at the appropriate temperature. After the incubation, the vessels are examined for growth/no growth. The MIC is defined as the lowest concentration of compound that results in complete inhibition of growth of the test organism. BACTERIA: Pseudomonas fluorescens (Ps.fl), gram negative; Pseudomonas aerugenosa (Ps.ae), gram negative; Escherichia coli (E.c), gram negative; and Staphylococcus aureus (S.a), gram positive.

Escherichia coli = test: MIC, broth two-fold serial dilution test, Escherichia coli (Ecol); assay type: cell-based
From the text: as §1

Aspergillus niger = test: MIC, broth two-fold serial dilution test, Aspergillus niger (Anig); assay type: cell-based; settings: TSB
From the text: as §1, with “INDUSTRIAL FUNGI: Aspergillus niger (A.n); Aureobasidium pullulans (A.p)” for “BACTERIA: Pseudomonas fluorescens (Ps.fl), gram negative; Pseudomonas aerugenosa (Ps.ae), gram negative; Escherichia coli (E.c), gram negative; and Staphylococcus aureus (S.a), gram positive.”

[3] = tested on: Puccinia recondita (f. sp. tritici Races PKB and PLD); test: whole plant or invertebrate; assay type: in vivo
Pseudomonas aerugenosa = test: MIC, broth two-fold serial dilution test, Pseudomonas aerugenosa (Psae); assay type: cell-based
From the text: as §1

[4] = tested on: Pellicularia filamentosa (f. sp. sasiki); test: whole plant or invertebrate; assay type: in vivo; settings: 120 h; read-out: % Control RSB
Phytophthora infestans = test: whole plant or invertebrate; assay type: in vivo; settings: for pest or weed control at 50 ppm: read-out: % Control TLB, secondary greenhouse test (Table 5), 50 ppm; for percent disease control TLB: advanced greenhouse test (Table 6), 0.25 kg a.i./ha
Septoria nodorum = settings: in vivo
[5] = tested on: Erysiphe graminis (f. sp. tritici); test: whole plant or invertebrate; assay type: in vivo; settings: for percent disease control WPM: in vivo
Rhizoctonia solani = test: microbe, parasite or virus in culture; assay type: cell-based; settings: read-out: % Control RHI
Xanthomonas campestris = test: microbe, parasite or virus in culture; assay type: cell-based; settings: read-out: % Control XAN
Cochliobolus sativus = test: In-vitro plant disease test, HEL; assay type: cell-based; settings: Bipolaris sorokiniana, read-out: % Control HEL
Piricularia oryzae [6] = test: microbe, parasite or virus in culture; assay type: cell-based; settings: read-out: % Control PIR
Fusarium roseum = test: microbe, parasite or virus in culture; settings: Fusarium sambucinum, read-out: % Control FUS
From the text: FUS Fusarium roseum (Ascomycete)
Transfers in steps 1 and 2 are done in a laminar flow hood. All 8 fungi and the bacterium used in this test are transferred and maintained on potato dextrose agar plates each week (2 plates/organism). Organisms are used when they are the following ages: a. […] Culture flasks are inoculated with 6 mycelial plugs each (except for Pythium which is inoculated with only 3 plugs) taken from PDA plates. All liquid shaker cultures are used after 2 days growth.
PYU, PHY, RHI and FUS cultures are ground up (2-3 5 second bursts in a blender) and all but Pythium and Phytophthora are filtered through a double layer of sterile cheesecloth to remove large mycelial clumps. Ten ml of the culture solutions of R. solani and F. roseum are added to 90 ml of YSB and 10 ml of the P. capsici is added to 90 ml ASB. […] The inoculum mixtures are placed in microtiter plates using a 12-tipped pipet. 175 μl (single dose) or 100 μl (dose-response test) of inoculum broth is placed in each well of the microtiter plates. The plates with inoculated media are placed in the refrigerator overnight. There are two replications per treatment.
This operation is carried out in a chemistry hood. Six microtiter plates have 245 microliters of sterile water added to their wells ahead of time. 10 Mg a.i. of the compounds are placed in 1 ml 1:1 acetone:methanol. 5 Microliters of this solution (6 microliters in the case of the 50 ppm dose) is pipetted into the microtiter plates containing the sterile water according to the grid. There are 45 compounds and 3 scattered control treatments per plate. There are 2 replicates per treatment. 25 Microliters of solution is transferred to the inoculated plates with a 96 well replicator. The replicator is flame sterilized with alcohol, rinsed with sterile water, and blotted on sterile paper towels between each transfer.

Phytophthora capsici = test: In-vitro plant disease test, PHY; assay type: cell-based; settings: read-out: % Control PHY
Pythium ultimum = test: In-vitro plant disease test, PYU; assay type: cell-based; settings: Globisporangium ultimum, read-out: % Control PYU
[7] = Pseudoperonospora cubensis, in Cucumis sativus, 168 h, read-out: % Control CDM
[8] = Puccinia recondita, 240 h, read-out: % Control WLR
[9] = Phytophthora infestans, in Solanum lycopersicum, 96 h, read-out: % Control TLB, greenhouse test (Table 4), 200 ppm
[10] = Phytophthora infestans, in Solanum lycopersicum, 96 h
[11] = Phytophthora infestans, in Solanum lycopersicum, 96 h, read-out: % Control TLB, secondary greenhouse test (Table 5), 200 ppm
[12] = Blumeria graminis, read-out: % Control WPM

## CC1C(=O)N(c2ccc(Cl)cc2)C(=O)N1CC#CI (centres unmarked) [Compound 2, 1-(3-iodo-2-propynyl)-3-(4-chlorophenyl)-5-methylhydantoin]
Piricularia oryzae [1]
  pest or weed control at 50 ppm: 50%
  pest or weed control at 200 ppm: 75%
TLB, CDM, WLR, SNW, WPM
  percent disease control Average: 72.4%
[2]; [7]
  pest or weed control at 200 ppm: 0%
[2]
  percent disease control CDM: 98.0%
Staphylococcus aureus; M9G
  MIC: > 500 µg/mL
Staphylococcus aureus; TSB
  MIC: > 500 µg/mL
Escherichia coli; M9G
  MIC: > 500 µg/mL
Escherichia coli; TSB
  MIC: 500 µg/mL (≈ 1290 µM)
Aspergillus niger
  MIC: 2 µg/mL (≈ 5.15 µM)
[3]; [8]
  pest or weed control at 50 ppm: 80%
  pest or weed control at 200 ppm: 85%
[3]; in vivo
  % Control WLR: 90%
  percent disease control WLR: 83.0%
Pseudomonas aerugenosa; M9G
  MIC: > 500 µg/mL
Pseudomonas aerugenosa; TSB
  MIC: > 500 µg/mL
[4]
  pest or weed control at 50 ppm: 0%
  pest or weed control at 200 ppm: 0%
Phytophthora infestans; [9]
  pest or weed control at 200 ppm: 0%
Phytophthora infestans; [10]
  pest or weed control at 50 ppm: 50%
Phytophthora infestans; [11]
  pest or weed control at 200 ppm: 75%
Phytophthora infestans
  percent disease control TLB: 38.0%
Septoria nodorum
  percent disease control SNW: 90.0%
[5]; [12]
  pest or weed control at 50 ppm: 50%
  pest or weed control at 200 ppm: 75%
[5]
  percent disease control WPM: 53.0%

## CC1C(=O)N(c2ccc(F)cc2)C(=O)N1CC#CI (centres unmarked) [Compound 3, 1-(3-iodo-2-propynyl)-3-(4-fiuorophenyl)-5-methylhydantoin]
Piricularia oryzae [1]
  pest or weed control at 50 ppm: 50%
  pest or weed control at 200 ppm: 50%
TLB, CDM, WLR, SNW, WPM
  percent disease control Average: 67.8%
[2]; [7]
  pest or weed control at 200 ppm: 50%
[2]
  percent disease control CDM: 100.0%
Staphylococcus aureus; M9G
  MIC: > 500 µg/mL
Staphylococcus aureus; TSB
  MIC: > 500 µg/mL
Escherichia coli; M9G
  MIC: > 500 µg/mL
Escherichia coli; TSB
  MIC: 250 µg/mL (≈ 672 µM)
Aspergillus niger
  MIC: 4 µg/mL (≈ 10.7 µM)
[3]; [8]
  pest or weed control at 50 ppm: 0%
  pest or weed control at 200 ppm: 95%
[3]; in vivo
  percent disease control WLR: 75.0%
Pseudomonas aerugenosa; M9G
  MIC: > 500 µg/mL
Pseudomonas aerugenosa; TSB
  MIC: > 500 µg/mL
[4]
  pest or weed control at 50 ppm: 0%
  pest or weed control at 200 ppm: 0%
Phytophthora infestans; [9]
  pest or weed control at 200 ppm: 0%
Phytophthora infestans; [10]
  pest or weed control at 50 ppm: 0%
Phytophthora infestans; [11]
  pest or weed control at 200 ppm: 95%
Phytophthora infestans
  percent disease control TLB: 52.0%
Septoria nodorum
  percent disease control SNW: 47.0%
[5]; [12]
  pest or weed control at 50 ppm: 50%
  pest or weed control at 200 ppm: 40%
[5]
  percent disease control WPM: 65.0%

## O=C1N(c2cc(Cl)cc(Cl)c2)C(=O)C2(CCCC2)N1CC#CI [Compound 4, 1-(3-iodo-2-propynyl)-3-(3,5-dichlorophenyl)-5,5-spirocyclopentane-hydantoin]
Piricularia oryzae [1]
  pest or weed control at 50 ppm: 50%
  pest or weed control at 200 ppm: 50%
TLB, CDM, WLR, SNW, WPM
  percent disease control Average: 65.2%
[2]; [7]
  pest or weed control at 200 ppm: 50%
[2]
  percent disease control CDM: 100.0%
Staphylococcus aureus; M9G
  MIC: > 500 µg/mL
Staphylococcus aureus; TSB
  MIC: > 500 µg/mL
Escherichia coli; M9G
  MIC: > 500 µg/mL
Escherichia coli; TSB
  MIC: > 500 µg/mL
Aspergillus niger
  MIC: 16 µg/mL (≈ 34.5 µM)
[3]; [8]
  pest or weed control at 50 ppm: 0%
  pest or weed control at 200 ppm: 0%
[3]; in vivo
  percent disease control WLR: 80.0%
Pseudomonas aerugenosa; M9G
  MIC: > 500 µg/mL
Pseudomonas aerugenosa; TSB
  MIC: > 500 µg/mL
[4]
  pest or weed control at 50 ppm: 50%
  pest or weed control at 200 ppm: 50%
Phytophthora infestans; [9]
  pest or weed control at 200 ppm: 95%
Phytophthora infestans; [10]
  pest or weed control at 50 ppm: 0%
Phytophthora infestans; [11]
  pest or weed control at 200 ppm: 0%
Phytophthora infestans
  percent disease control TLB: 30.0%
Septoria nodorum
  percent disease control SNW: 53.0%
[5]; [12]
  pest or weed control at 50 ppm: 0%
  pest or weed control at 200 ppm: 25%
[5]
  percent disease control WPM: 63.0%

## O=C1N(c2cc(Cl)cc(Cl)c2)C(=O)C2(CCCCC2)N1CC#CI [Compound 5, 1-(3-iodo-2-propynyl)-3-(3,5-dichlorophenyl)-5,5-spirocyclohexane-hydantoin]
Piricularia oryzae [1]
  pest or weed control at 50 ppm: 50%
TLB, CDM, WLR, SNW, WPM
  percent disease control Average: 69.4%
[2]; [7]
  pest or weed control at 200 ppm: 40%
[2]
  percent disease control CDM: 100.0%
Staphylococcus aureus; M9G
  MIC: > 500 µg/mL
Staphylococcus aureus; TSB
  MIC: > 500 µg/mL
Escherichia coli; M9G
  MIC: > 500 µg/mL
Escherichia coli; TSB
  MIC: > 500 µg/mL
Aspergillus niger
  MIC: > 500 µg/mL
[3]; [8]
  pest or weed control at 50 ppm: 0%
  pest or weed control at 200 ppm: 0%
[3]; in vivo
  percent disease control WLR: 80.0%
Pseudomonas aerugenosa; M9G
  MIC: > 500 µg/mL
Pseudomonas aerugenosa; TSB
  MIC: > 500 µg/mL
[4]
  pest or weed control at 50 ppm: 25%
Phytophthora infestans; [9]
  pest or weed control at 200 ppm: 95%
Phytophthora infestans; [10]
  pest or weed control at 50 ppm: 0%
Phytophthora infestans
  percent disease control TLB: 28.0%
Septoria nodorum
  percent disease control SNW: 72.0%
[5]; [12]
  pest or weed control at 50 ppm: 50%
  pest or weed control at 200 ppm: 0%
[5]
  percent disease control WPM: 67.0%

## CC1(C)C(=O)N(CC#CI)C(=O)N1CC#CI [Compound 11]
Piricularia oryzae [1]
  pest or weed control at 100 ppm: 95%
Rhizoctonia solani
  inhibition of growth at 25 ppm: 100%
  inhibition of growth at 50 ppm: 100%
[2]; [7]
  pest or weed control at 100 ppm: 100%
Staphylococcus aureus; M9G
  MIC: 32 µg/mL (≈ 70.2 µM)
Escherichia coli; M9G
  MIC: 64 µg/mL (≈ 140 µM)
Aspergillus niger
  MIC: < 4 µg/mL
[3]; [8]
  pest or weed control at 100 ppm: 50%
Xanthomonas campestris
  inhibition of growth at 25 ppm: 0%
  inhibition of growth at 50 ppm: 0%
Cochliobolus sativus
  inhibition of growth at 25 ppm: 90%
Piricularia oryzae [6]
  inhibition of growth at 25 ppm: 100%
  inhibition of growth at 50 ppm: 100%
Pseudomonas aerugenosa; M9G
  MIC: 125 µg/mL (≈ 274 µM)
Phytophthora infestans; Phytophthora infestans, in Solanum lycopersicum, 96 h, read-out: % Control TLB, greenhouse test (Table 4), 100 ppm
  pest or weed control at 100 ppm: 0%
Fusarium roseum
  inhibition of growth at 25 ppm: 0%
  inhibition of growth at 50 ppm: 100%
[5]; [12]
  pest or weed control at 100 ppm: 85%

## CC1(C)NC(=O)N(CC#CI)C1=O [Compound 12]
Piricularia oryzae [1]
  pest or weed control at 200 ppm: 95%
Rhizoctonia solani
  inhibition of growth at 25 ppm: 100%
[2]; [7]
  pest or weed control at 200 ppm: 0%
Staphylococcus aureus; M9G
  MIC: 125 µg/mL (≈ 428 µM)
Staphylococcus aureus; TSB
  MIC: 16 µg/mL (≈ 54.8 µM)
Escherichia coli; M9G
  MIC: 125 µg/mL (≈ 428 µM)
Escherichia coli; TSB
  MIC: 250 µg/mL (≈ 856 µM)
Aspergillus niger
  MIC: 8 µg/mL (≈ 27.4 µM)
[3]; [8]
  pest or weed control at 200 ppm: 25%
Xanthomonas campestris
  inhibition of growth at 25 ppm: 0%
Piricularia oryzae [6]
  inhibition of growth at 25 ppm: 90%
Pseudomonas aerugenosa; M9G
  MIC: 250 µg/mL (≈ 856 µM)
Pseudomonas aerugenosa; TSB
  MIC: > 500 µg/mL
Phytophthora capsici
  inhibition of growth at 25 ppm: 100%
Phytophthora infestans; [9]
  pest or weed control at 200 ppm: 0%
Fusarium roseum
  inhibition of growth at 25 ppm: 75%
Pythium ultimum
  inhibition of growth at 25 ppm: 100%
[5]; [12]
  pest or weed control at 200 ppm: 0%
